Results as given in patent publication US8613941B1, “Synergistic antimicrobial composition” (Dow Global Technologies LLC, priority 2012, dated 2013).

Columns and labels:
oilfield SRB consortium = test: Biocidal efficacy against anaerobic bacteria for a high temperature and sulfide-rich environment; assay type: cell-based, sulfate reducing bacteria (SRB); conditions: alone or in the blend, 80° C., 7 days, 10 ppm sulfide ion, 10^4 to 10^5 CFU/mL
Method: Inside an anaerobic chamber (BACTRON IV), biocides solutions were challenged with 10^4 to 10^5 CFU/mL of an oilfield SRB consortium and 10 ppm sulfide ion (added in the form of sodium sulfide). The biocide solutions were then incubated at 80° C. under anaerobic condition for 7 days. Then the biocidal efficacy was evaluated against the field SRB consortium. The biocidal efficacy was determined by the biocide dosage required for 99.999% bacterial reduction. Synergy Index was then calculated. Table 2 summarizes the efficacy of each biocide and their blends, and the Synergy Index* of each combination.

[1] = test system: oil field isolated anaerobic consortium, mainly SRB; test: Biocidal efficacy (MBC) of THPS, Tris Nitro and combination against sulfate reducing bacteria; assay type: cell-based, sulfate reducing bacteria (SRB); conditions: alone or in the blend, minimum tested biocide concentration for bacteria kill, 40° C., 24 hours, 10^6 to 10^7 CFU/mL
Method: Inside an anaerobic chamber (BACTRON anaerobic chamber), a deaerated sterile salt solution (3.1183 g of NaCl, 1.3082 mg of NaHCO3, 47.70 mg of KCl, 72.00 mg of CaCl2, 54.49 mg of MgSO4, 172.28 mg of Na2SO4, 43.92 mg of Na2CO3 in 1 L water) was contaminated with an oil field isolated anaerobic consortium, mainly SRB, at final bacterial concentrations of 10^6 to 10^7 CFU/mL. The aliquots of this contaminated water were then treated with THPS and Tris Nitro, or the THPS/Tris Nitro combination at different active concentration levels. After the mixtures were incubated at 40° C. for 24 hours, the biocidal efficacy was determined by minimum tested biocide concentration for bacteria kill in the aliquots (MBC). Table 1 summarizes the efficacy of each biocide and their blends, and the Synergy Index* of each combination.

Row | Compound | Concentration (active ppm) required for 99.999% bacterial reduction, Tris Nitro (oilfield SRB consortium; Tris Nitro concentration) | Average MBC (active ppm), Tris Nitro ([1]; Tris Nitro concentration) | Concentration (active ppm) required for 99.999% bacterial reduction, THPS (oilfield SRB consortium; THPS concentration) | Average MBC (active ppm), THPS ([1]; THPS concentration)
1 | O=[N+]([O-])C(CO)(CO)CO [0:1, tris(hydroxymethyl)nitromethane] | 360 active ppm | 46.1 active ppm | – | –
2 | tetrakis(hydroxymethyl)phosphonium sulfate [1:0] | – | – | 360.0 active ppm | 6.1 active ppm
